Measured values from US10626144B2, “Peptide derivatives and uses thereof” (Nosopharm, priority 2014, dated 2020).
Square brackets hold non-standard residues; d marks the D form. Peptide text beside a SMILES is read from it. Phe(3,4-(OMe)2) = COc1ccc(C[C@H](N)C(=O)O)cc1OC; Abu(4,4,4-F3) = N[C@@H](CC(F)(F)F)C(=O)O; Phe(4-CN) = N#Cc1ccc(C[C@H](N)C(=O)O)cc1; Phe(3-Me) = Cc1cccc(C[C@H](N)C(=O)O)c1; Dab(3S-OH) = NC[C@H](O)[C@H](N)C(=O)O; Phe(2-F) = N[C@@H](Cc1ccccc1F)C(=O)O; ΔZArg = N=C(N)NCC/C=C(\N)C(=O)O; Gly(cPr) = N[C@H](C(=O)O)C1CC1; Lys(Me) = CNCCCC[C@H](N)C(=O)O; dOrn = NCCC[C@@H](N)C(=O)O; Orn = NCCC[C@H](N)C(=O)O

What was measured:
Test in all cases: MIC, broth microdilution (CLSI), reference strain
Details in all cases: CAMHB
[1] = tested on: Escherichia coli ATCC 25922
[2] = tested on: Staphylococcus aureus ATCC 13709
[3] = tested on: Acinetobacter baumannii ATCC 19606
[4] = tested on: Pseudomonas aeruginosa ATCC 27853

Ec: MIC Escherichia coli ATCC 25922 [1] | Sa: MIC Staphylococcus aureus ATCC 13709 [2] | Ab: MIC Acinetobacter baumannii ATCC 19606 [3] | Pa: MIC Pseudomonas aeruginosa ATCC 27853 [4] | Compound
++ (≤8 μg/mL) | ++ (≤8 μg/mL) | − (>32 μg/mL) | − (>32 μg/mL) | Cc1cccc(C[C@H](NC(=O)[C@@H]2CCCN2C(=O)[C@@H](CCCN)NC(=O)CNC(=O)[C@H](CCCN)NC(=O)[C@@H](NC(=O)[C@@H](N)CCCCN)[C@@H](O)CN)C(=O)N[C@@H](CCCCN)C(=O)N/C(=C\CCNC(=N)N)C(=O)O)c1 [211.5] (H-K[Dab(3S-OH)][Orn]G[dOrn]P[Phe(3-Me)]K[ΔZArg]-OH)
++ (≤8 μg/mL) | ++ (≤8 μg/mL) | − (>32 μg/mL) | − (>32 μg/mL) | COc1ccc(C[C@H](NC(=O)[C@@H]2CCCN2C(=O)[C@@H](CCCN)NC(=O)CNC(=O)[C@H](CCCN)NC(=O)[C@@H](NC(=O)[C@@H](N)CCCCN)[C@@H](O)CN)C(=O)N[C@@H](CCCCN)C(=O)N/C(=C\CCNC(=N)N)C(=O)O)cc1 [211.7] (H-K[Dab(3S-OH)][Orn]G[dOrn]PY(Me)K[ΔZArg]-OH)
++ (≤8 μg/mL) | ++ (≤8 μg/mL) | − (>32 μg/mL) | − (>32 μg/mL) | N=C(N)NCC/C=C(\NC(=O)[C@H](CCCCN)NC(=O)[C@H](Cc1c[nH]c2ccccc12)NC(=O)[C@@H]1CCCN1C(=O)[C@@H](CCCN)NC(=O)CNC(=O)[C@H](CCCN)NC(=O)[C@@H](NC(=O)[C@@H](N)CCCCN)[C@@H](O)CN)C(=O)O [211.11] (H-K[Dab(3S-OH)][Orn]G[dOrn]PWK[ΔZArg]-OH)
+ (≤32 μg/mL) | + (≤32 μg/mL) | − (>32 μg/mL) | − (>32 μg/mL) | N=C(N)NCC/C=C(\NC(=O)[C@H](CCCCN)NC(=O)[C@H](Cc1cnc[nH]1)NC(=O)[C@@H]1CCCN1C(=O)[C@@H](CCCN)NC(=O)CNC(=O)[C@@H](NC(=O)[C@@H](NC(=O)[C@@H](N)CCCCN)[C@@H](O)CN)C1CC1)C(=O)O [213.2] (H-K[Dab(3S-OH)][Gly(cPr)]G[dOrn]PHK[ΔZArg]-OH)

Further lines, the molecule ahead of its results:

Compound | Ec: MIC Escherichia coli ATCC 25922 [1] | Sa: MIC Staphylococcus aureus ATCC 13709 [2] | Ab: MIC Acinetobacter baumannii ATCC 19606 [3] | Pa: MIC Pseudomonas aeruginosa ATCC 27853 [4]
N#Cc1ccc(C[C@H](NC(=O)[C@@H]2CCCN2C(=O)[C@@H](CCCN)NC(=O)CNC(=O)[C@H](CCCN)NC(=O)[C@@H](NC(=O)[C@@H](N)CCCCN)[C@@H](O)CN)C(=O)N[C@@H](CCCCN)C(=O)N/C(=C\CCNC(=N)N)C(=O)O)cc1 [211.6] (H-K[Dab(3S-OH)][Orn]G[dOrn]P[Phe(4-CN)]K[ΔZArg]-OH) | ++ (≤8 μg/mL) | ++ (≤8 μg/mL) | − (>32 μg/mL) | − (>32 μg/mL)
N=C(N)NCC/C=C(\NC(=O)[C@H](CCCCN)NC(=O)[C@H](CC(F)(F)F)NC(=O)[C@@H]1CCCN1C(=O)[C@@H](CCCN)NC(=O)CNC(=O)[C@H](CCCN)NC(=O)[C@@H](NC(=O)[C@@H](N)CCCCN)[C@@H](O)CN)C(=O)O [211.8] (H-K[Dab(3S-OH)][Orn]G[dOrn]P[Abu(4,4,4-F3)]K[ΔZArg]-OH) | ++ (≤8 μg/mL) | ++ (≤8 μg/mL) | − (>32 μg/mL) | − (>32 μg/mL)
N=C(N)NCC/C=C(\NC(=O)[C@H](CCCCN)NC(=O)[C@H](Cc1ccccc1F)NC(=O)[C@@H]1CCCN1C(=O)[C@@H](CCCN)NC(=O)CNC(=O)[C@H](CCCN)NC(=O)[C@@H](NC(=O)[C@@H](N)CCCCN)[C@@H](O)CN)C(=O)O [211.9] (H-K[Dab(3S-OH)][Orn]G[dOrn]P[Phe(2-F)]K[ΔZArg]-OH) | ++ (≤8 μg/mL) | ++ (≤8 μg/mL) | − (>32 μg/mL) | − (>32 μg/mL)
COc1ccc(C[C@H](NC(=O)[C@@H]2CCCN2C(=O)[C@@H](CCCN)NC(=O)CNC(=O)[C@H](CCCN)NC(=O)[C@@H](NC(=O)[C@@H](N)CCCCN)[C@@H](O)CN)C(=O)N[C@@H](CCCCN)C(=O)N/C(=C\CCNC(=N)N)C(=O)O)cc1OC [211.10] (H-K[Dab(3S-OH)][Orn]G[dOrn]P[Phe(3,4-(OMe)2)]K[ΔZArg]-OH) | ++ (≤8 μg/mL) | ++ (≤8 μg/mL) | − (>32 μg/mL) | − (>32 μg/mL)
N=C(N)NCC/C=C(\NC(=O)[C@H](CCCCN)NC(=O)[C@H](Cc1cnc[nH]1)NC(=O)[C@@H]1CCCN1C(=O)[C@@H](CCCN)NC(=O)CNC(=O)[C@@H](NC(=O)[C@@H](NC(=O)[C@@H](N)CCCCN)[C@@H](O)CN)C1CC1)C(N)=O [213.1] (H-K[Dab(3S-OH)][Gly(cPr)]G[dOrn]PHK[ΔZArg]-NH2) | + (≤32 μg/mL) | ++ (≤8 μg/mL) | − (>32 μg/mL) | − (>32 μg/mL)
N=C(N)NCC/C=C(\NC(=O)[C@H](CCCCN)NC(=O)[C@H](Cc1cnc[nH]1)NC(=O)[C@@H]1CCCN1C(=O)[C@@H](CCCN)NC(=O)CNC(=O)[C@H](Cc1cnc[nH]1)NC(=O)[C@@H](NC(=O)[C@@H](N)CCCCN)[C@@H](O)CN)C(N)=O [214.1] (H-K[Dab(3S-OH)]HG[dOrn]PHK[ΔZArg]-NH2) | + (≤32 μg/mL) | ++ (≤8 μg/mL) | − (>32 μg/mL) | − (>32 μg/mL)
N=C(N)NCC/C=C(\NC(=O)[C@H](CCCCN)NC(=O)[C@H](Cc1cnc[nH]1)NC(=O)[C@@H]1CCCN1C(=O)[C@@H](CCCN)NC(=O)CNC(=O)[C@H](Cc1cnc[nH]1)NC(=O)[C@@H](NC(=O)[C@@H](N)CCCCN)[C@@H](O)CN)C(=O)O [214.2] (H-K[Dab(3S-OH)]HG[dOrn]PHK[ΔZArg]-OH) | − (>32 μg/mL) | + (≤32 μg/mL) | − (>32 μg/mL) | − (>32 μg/mL)
N=C(N)NCC/C=C(\NC(=O)[C@H](CCCCN)NC(=O)[C@H](Cc1cnc[nH]1)NC(=O)[C@@H]1CCCN1C(=O)[C@@H](CCCN)NC(=O)CNC(=O)[C@H](CCCCN)NC(=O)[C@@H](NC(=O)[C@@H](N)CCCCN)[C@@H](O)CN)C(=O)O [215.1] (H-K[Dab(3S-OH)]KG[dOrn]PHK[ΔZArg]-OH) | + (≤32 μg/mL) | ++ (≤8 μg/mL) | − (>32 μg/mL) | − (>32 μg/mL)
CNCCCC[C@H](NC(=O)[C@@H](NC(=O)[C@@H](N)CCCCN)[C@@H](O)CN)C(=O)NCC(=O)N[C@H](CCCN)C(=O)N1CCC[C@H]1C(=O)N[C@@H](Cc1cnc[nH]1)C(=O)N[C@@H](CCCCN)C(=O)N/C(=C\CCNC(=N)N)C(N)=O [215.2] (H-K[Dab(3S-OH)][Lys(Me)]G[dOrn]PHK[ΔZArg]-NH2) | ++ (≤8 μg/mL) | ++ (≤8 μg/mL) | − (>32 μg/mL) | − (>32 μg/mL)
